Reference: patent publication US20070197509A1, “Compositions and methods for modulating gated ion channels” (PainCeptor Pharma Corporation, priority 2005, published 2007)
“Also recorded” adds a separate entry of the source. Where two headings read alike, the source gives them in different places.

Target: T1, hASIC1a (Homo sapiens, UniProt P78348)
T1 sequence (P78348 1-528): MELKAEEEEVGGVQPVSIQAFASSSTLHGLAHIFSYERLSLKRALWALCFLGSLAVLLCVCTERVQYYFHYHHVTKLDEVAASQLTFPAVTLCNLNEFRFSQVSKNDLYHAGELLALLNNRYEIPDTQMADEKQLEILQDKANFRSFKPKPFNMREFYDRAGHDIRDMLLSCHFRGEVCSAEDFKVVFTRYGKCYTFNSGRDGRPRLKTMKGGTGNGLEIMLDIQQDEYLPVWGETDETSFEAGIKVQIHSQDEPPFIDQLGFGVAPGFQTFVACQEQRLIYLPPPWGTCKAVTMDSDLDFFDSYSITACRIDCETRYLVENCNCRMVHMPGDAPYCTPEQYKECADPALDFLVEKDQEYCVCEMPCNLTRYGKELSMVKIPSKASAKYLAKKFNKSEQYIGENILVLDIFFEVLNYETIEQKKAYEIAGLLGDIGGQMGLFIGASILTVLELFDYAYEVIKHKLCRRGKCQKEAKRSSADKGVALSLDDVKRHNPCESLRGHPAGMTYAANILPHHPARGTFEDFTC
Test: Whole-cell patch clamp of acid-induced currents in cells transfected with hASIC1a
Format: cell-based
Set-up: expressed in transfected cells
Details: for effect on acid-induced hASIC1a inward current (FIGS. 2A, 2B, 3C): whole-cell patch clamp, dose-inhibition curves
Protocol: Another example of an in vitro assessment method consists of using mammalian heterologous expression systems, which are known to those skilled in the art, and include a variety of mammalian cell lines such as COS, HEK, e.g., HEK293 and/or CHO, cells. Cell lines are transfected with gated ion channel(s) and used to perform electrophysiology as follows:
All experiments are performed at room temperature (20-25° C.) in voltage clamp using conventional whole cell patch clamp methods (Neher, E., et al. (1978) Pfluegers Arch 375:219-228).
The amplifier used is the EPC-9 (HEKA-electronics, Lambrect, Germany) run by a Macintosh G3 computer via an ITC-16 interface. Experimental conditions are set with the Pulse-software accompanying the amplifier. Data is low pass filtered and sampled directly to hard-disk at a rate of 3 times the cut-off frequency.
Pipettes are pulled from borosilicate glass using a horizontal electrode puller (Zeitz-lnstrumente, Augsburg, Germany). The pipette resistances are 2-3 MOhms in the salt solutions used in these experiments. The pipette electrode is a chloridized silver wire, and the reference is a silver chloride pellet electrode (In Vivo Metric, Healdsburg, USA) fixed to the experimental chamber. The electrodes are zeroed with the open pipette in the bath just prior to sealing.
Coverslips with the cells are transferred to a 15 μl experimental chamber mounted on the stage of an inverted microscope (IMT-2, Olympus) supplied with Nomarski optics. Cells are continuously superfused with extracellular saline at a rate of 2.5 ml/min. After giga-seal formation, the whole cell configuration is attained by suction. The cells are held at a holding voltage of −60 mV and at the start of each experiment the current is continuously measured for 45 s to ensure a stable baseline. Solutions of low pH (<7) are delivered to the chamber through a custom-made gravity-driven flowpipe, the tip of which is placed approximately 50 μm from the cell. Application is triggered when the tubing connected to the flowpipe is compressed by a valve controlled by the Pulse-software. Initially, low pH (in general, pH 6.5) is applied for 5 s every 60 s. The sample interval during application is 550 μs. After stable responses are obtained, the extracellular saline as well as the low-pH solution are switched to solutions containing the compound to be tested. The compound is present until responses of repeatable amplitude are achieved. Current amplitudes are measured at the peak of the responses, and effect of the compounds is calculated as the amplitude at compound equilibrium divided by the amplitude of the current evoked by the pulse just before the compound was included.
The following salt solutions are used: extracellular solution (mM): NaCl (140), KCl (4), CaCl2 (2), MgCl2 (4), HEPES (10, pH 7.4); intracellular solution (mM): KCl (120), KOH (31), MgCl2 (1.785), EGTA (10), HEPES (10, pH 7.2). In general, compounds for testing are dissolved in 50% DMSO at 500 fold the highest concentration used.
CHO cells were transfected with hASIC1a and used to perform full dose-inhibition curves with Compound B, and Compound R. Results are expressed as a fraction of the control peak current obtained in the absence of the test substance.

[1] = Table H, read-out: IC50 (μM) Patch Clamp (h1a)

Compound	IC50 [1] [µM]	effect on acid-induced hASIC1a inward current (FIGS. 2A, 2B, 3C)	IC50 (patch clamp (PC), Tables A-F, h1a printed in some cells only, read-out: Biological Data (IC50 uM) h1a (PC)) [µM]	selectivity hASIC1a versus hASIC3 (patch clamp, CHO cells, FIG. 3)	reversibility of the effect on hASIC1a current (washout of the compound after 1 μM)
COc1ccc(C(=O)CN2CCN(c3cc(C)nc4ccccc34)CC2)cc1 [Compound A, 1-(4-methoxy-phenyl)-2-[4-(2-methyl-quinolin-4-yl)-piperazin-1-yl]-ethanone]	> 10	–	–	–	–
Fc1cccc2c(OC3CCN(Cc4ccccc4)CC3)cc(C(F)(F)F)nc12 [Compound B, 4-(1-benzyl-piperidin-4-yloxy)-8-fluoro-2-trifluoromethyl-quinoline]	–	dose-dependently reduce hASIC1a activity; also recorded: dose-dependent reduction	–	–	–
Cc1cc(OC2CCN(Cc3ccccc3)CC2)c2ccccc2n1 [Compound R, 4-(1-benzyl-piperidin-4-yloxy)-2-methyl-quinoline]	3.8	dose-dependently reduce hASIC1a activity; also recorded: reduced the hASIC1a pH-evoked response in a dose-dependent manner; also recorded: dose-dependent reduction	2 to 10	selective against specific ASIC subunits; also recorded: selective for hASIC1a over hASIC3	fully reversed upon washout
